Legend:
HDAC11 = biological target: T1, HDAC11 (Homo sapiens, UniProt Q96DB2); assay: HDAC enzyme-based fluorogenic assay, HDAC11; format: biochemical
T1 sequence (Q96DB2 1-347): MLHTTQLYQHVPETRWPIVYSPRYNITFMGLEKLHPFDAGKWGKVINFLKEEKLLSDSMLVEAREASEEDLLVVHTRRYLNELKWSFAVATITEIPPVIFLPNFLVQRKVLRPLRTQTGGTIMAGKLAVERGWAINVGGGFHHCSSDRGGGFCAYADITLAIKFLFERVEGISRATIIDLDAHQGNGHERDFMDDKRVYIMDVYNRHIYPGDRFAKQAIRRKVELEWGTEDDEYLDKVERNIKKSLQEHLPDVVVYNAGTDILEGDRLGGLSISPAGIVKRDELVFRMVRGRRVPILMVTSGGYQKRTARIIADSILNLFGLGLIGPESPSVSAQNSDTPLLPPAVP

[1] = system: formalin-induced inflammatory pain in mice; assay: Formalin-induced inflammatory pain model in mice; format: in vivo, Kunming mice; details: for pain response, second phasic response: dose study, Figure 15, compared with the model group
HDAC8 = biological target: T2, HDAC8 (Homo sapiens, UniProt Q9BY41); assay: HDAC enzyme-based fluorogenic assay, HDAC8; format: biochemical
T2 sequence (Q9BY41 1-377): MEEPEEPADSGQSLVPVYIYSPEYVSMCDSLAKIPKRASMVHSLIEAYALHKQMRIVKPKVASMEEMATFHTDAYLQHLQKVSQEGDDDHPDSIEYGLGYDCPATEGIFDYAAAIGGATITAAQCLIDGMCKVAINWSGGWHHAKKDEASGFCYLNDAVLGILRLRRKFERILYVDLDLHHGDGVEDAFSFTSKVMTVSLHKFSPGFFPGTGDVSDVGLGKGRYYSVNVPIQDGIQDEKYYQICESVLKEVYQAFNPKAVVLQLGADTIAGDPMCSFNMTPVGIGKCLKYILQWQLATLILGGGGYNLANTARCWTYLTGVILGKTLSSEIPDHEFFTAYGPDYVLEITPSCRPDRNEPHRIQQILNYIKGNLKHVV

Acute toxicity test = details: in vivo
[2] = system: acetylation of α-tubulin and histone H3 in THP-1 cell; assay: Western blot of acetylation of α-tubulin and histone H3 in THP-1 cell; format: cell-based; details: 1 μM and 2 μM, 24 h
[3] = system: xylene-induced ear swelling inflammation in mice; assay: Xylene-induced ear swelling inflammation model in mice; format: in vivo, Kunming mice; details: Table 7 dose study
[4] = Pharmacokinetic study in rats; format: in vivo, SD rats; details: for CL / Vz: SD rats, ig (oral) 50 mg/kg; for AUC(0-inf) / AUC(0-t) / Cmax / Tmax / Vd / clearance / half-life / bioavailability: both, Sprague-Dawley, rat, plasma; for bioavailability: oral
[5] = system: LPS-induced RAW264.7 cells; assay: Inflammatory factors and iNOS in LPS-induced RAW264.7 cells; format: cell-based

SMILES	IC50 (HDAC11)	IC50 (HDAC8)	CL [4]	Vz [4]	AUC(0-inf) ([4]; iv, 10 mg/kg)	AUC(0-t) ([4]; iv, 10 mg/kg)	Cmax ([4]; iv, 10 mg/kg)	Tmax ([4]; iv, 10 mg/kg)	Vd ([4]; iv, 10 mg/kg)	clearance ([4]; iv, 10 mg/kg)	half-life ([4]; iv, 10 mg/kg)	bioavailability ([4]; 50 mg/kg)	AUC(0-inf) ([4]; po, 50 mg/kg)	AUC(0-t) ([4]; po, 50 mg/kg)	Cmax ([4]; po, 50 mg/kg)	Tmax ([4]; po, 50 mg/kg)	half-life ([4]; po, 50 mg/kg)	other results
O=C(CCCCCCNC(=O)[C@H]1CCCN(C(=O)c2ccc(NC(=O)Nc3ccc(Cl)c(F)c3)c(F)c2)C1)NO [Compound 28g, (S)-1-(4-(3-(4-Chloro-3-fluorophenyl)ureido)-3-fluorobenzoyl)-N-(7-(hydroxyamino)-7-oxoheptyl)piperidine-3-carboxamide]	464 nM	62 nM	0.82 L/h	4.20 L	21.2 µM·h	12.3 µM·h	7.87 µM	0.08 h	1.28 L	2.67 mL/min	5.43 h	24.4%	21.2 µM·h	15 µM·h	6.63 µM	0.5 h	3.55 h	pain response, second phasic response ([1]; 10 mg/kg): reduced the pain response; pain response, second phasic response ([1]; 30 mg/kg (high-dose)): significantly reduced the pain response; pain response time, first phasic response ([1]; mice, 30 mg/kg intraperitoneally, Figure 13): did not significantly reduce the pain response time; safety in acute toxicity test (Acute toxicity test): good safety; acetylation of histone H3 [2]: without affecting histone H3; acetylation of α-tubulin [2]: induced an increase in acetylation of α-tubulin; Inhibition rate ([3]; 10 mg/kg by gavage for 7 days): 44.39%; Swelling degree ([3]; 10 mg/kg by gavage for 7 days): 8.7 ± 1.7 mg; Swelling rate ([3]; 10 mg/kg by gavage for 7 days): 69.39%; Inhibition rate ([3]; 30 mg/kg by gavage for 7 days): 67.17%; Swelling degree ([3]; 30 mg/kg by gavage for 7 days): 5.1 ± 0.9 mg; Swelling rate ([3]; 30 mg/kg by gavage for 7 days): 39.50%; levels of gene expression of iNOS ([5]; LPS-induced RAW264.7 cells, western blot): suppressed; levels of IL-6, IL-1β, TNF-α and NO ([5]; RAW264.7 cells preconditioned 1–100 µg/mL for 12 h, then LPS 1 µg/mL 12 h, ELISA): significantly reversed this change
O=C(CCCCCCNC(=O)[C@H]1CCCN(C(=O)c2ccc(NC(=O)Nc3cc(F)cc(F)c3)c(F)c2)C1)NO [Compound 28j, (S)-1-(4-(3-(3,5-Difluorophenyl)ureido)-3-fluorobenzoyl)-N-(7-(hydroxyamino)-7-oxoheptyl)piperidine-3-carboxamide]	1050 nM	72 nM	0.96 L/h	3.95 L	20 µM·h	13.8 µM·h	8.1 µM	0.08 h	1.1 L	3 mL/min	4.08 h	21.5%	18.7 µM·h	14.8 µM·h	10.1 µM	0.17 h	2.84 h	–
